Like-named read-outs stand apart in the source and are kept apart here.
What was measured:
[1] = target: T1, Full-length (FL)-PRMT5-MEP50 enzyme complex (Homo sapiens, UniProt O14744); assay: PRMT5-MEP50 Enzyme Methylation Assay (Version A); assay type: biochemical
T1 construct: Full-length (FL)-PRMT5-MEP50 enzyme complex (recombinant proteins from baculovirus-transfected Sf21 cells: FL-PRMT5; MW=73837 kDa and FL-MEP50; MW=38614); made in house; host or cells: baculovirus-transfected Sf21 cells
Outline: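 Compound was pre-incubated with enzyme for 60 min, then reacted 150 min at 37° C. at final 1.0 nM PRMT5-MEP50, 15 μM SAM and 75 nM biotinylated H4R3(Me1) peptide, in 50 mM Bicine pH 8.0 with 1% DMSO. SAMDI mass-spectrometric readout of Me1→Me2 conversion. EC50 from 4- or 7-parameter regression.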

[2] = system: symmetric dimethylation of arginine (SDMA) of PRMT5 substrates in MCF-7 cells; assay: PRMT5 Cell Target Engagement (TE) Assay; assay type: cell-based; settings: Homo sapiens, MCF7, 72 h, 3 days treatment, SDMA high content imaging
Outline: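 MCF-7 cells treated 3 days at 37 °C with a ten-point 1:3 titration from 10000 nM. Fixed cells immunostained with anti-SDMA and Alexa488 secondary; nuclear fluorescence quantified by high-content imaging versus DMSO wells, with IC50 from a 4-parameter fit.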

[3] = second value of 7 parameter biphasic fit, read-out: Enzyme Methylation Assay Version A (EC50 2)
[4] = single EC50 = 4 parameter single site sigmoidal fit, EC50 1 = first value of 7 parameter biphasic fit, read-out: Enzyme Methylation Assay Version A (EC50 or EC50 1)

T1 sequence (O14744 whole entry): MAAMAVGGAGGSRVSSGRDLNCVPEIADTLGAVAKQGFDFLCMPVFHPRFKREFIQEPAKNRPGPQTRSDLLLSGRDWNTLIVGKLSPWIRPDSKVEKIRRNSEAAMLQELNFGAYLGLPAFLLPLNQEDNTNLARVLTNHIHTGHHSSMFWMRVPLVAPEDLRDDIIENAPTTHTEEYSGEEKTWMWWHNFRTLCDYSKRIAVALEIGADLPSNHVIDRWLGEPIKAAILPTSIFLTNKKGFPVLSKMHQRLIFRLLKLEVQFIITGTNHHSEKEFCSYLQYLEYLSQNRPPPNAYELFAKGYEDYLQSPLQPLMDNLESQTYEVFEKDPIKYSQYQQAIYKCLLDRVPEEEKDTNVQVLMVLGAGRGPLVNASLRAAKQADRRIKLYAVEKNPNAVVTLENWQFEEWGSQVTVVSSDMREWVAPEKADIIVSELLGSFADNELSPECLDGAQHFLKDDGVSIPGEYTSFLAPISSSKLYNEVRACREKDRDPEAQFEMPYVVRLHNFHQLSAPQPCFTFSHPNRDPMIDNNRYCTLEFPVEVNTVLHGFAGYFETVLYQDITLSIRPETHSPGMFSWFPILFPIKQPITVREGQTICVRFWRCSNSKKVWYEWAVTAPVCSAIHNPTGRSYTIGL
T1 sequence (Q9BQA1 whole entry partner): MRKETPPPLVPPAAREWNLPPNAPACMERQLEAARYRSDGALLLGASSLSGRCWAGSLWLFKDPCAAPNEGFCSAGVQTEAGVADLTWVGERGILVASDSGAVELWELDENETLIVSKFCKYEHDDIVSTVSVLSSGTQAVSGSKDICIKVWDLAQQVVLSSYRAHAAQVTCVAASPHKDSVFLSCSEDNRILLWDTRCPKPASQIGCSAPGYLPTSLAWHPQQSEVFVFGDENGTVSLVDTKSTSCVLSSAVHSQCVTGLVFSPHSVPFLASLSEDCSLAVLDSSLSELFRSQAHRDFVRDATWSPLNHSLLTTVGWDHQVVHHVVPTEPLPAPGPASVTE

EC50 [1, 3] | EC50 [1, 4] | EC50 [2] | SMILES
34300 nM | 61.7 nM | 3950 nM | Cc1cnc2nc(C(=O)N3CC[C@]4(Cc5ccccc5CN4)[C@H](O)C3)cn2c1C [Example 127, (5,6-dimethylimidazo[1,2-a]pyrimidin-2-yl)[(3R,3′R)-3′^-hydroxy-1,4-dihydro-1′H,2H-spiro[isoquinoline-3,4′-piperidin]-1′-yl]methanone]
2690 nM | 5.33 nM | 195 nM | COc1nc2nc(C(=O)N3CC[C@]4(Cc5ccccc5CN4)[C@H](O)C3)cn2cc1C [Example 128, [(3R,3′R)-3′-hydroxy-1,4-dihydro-1′H,2H-spiro[isoquinoline-3,4′-piperidin]-1′-yl](7-methoxy-6-methylimidazo[1,2-a]pyrimidin-2-yl)methanone]
– | 836 nM | ≥ 10000 nM | O=C(c1cn2cc(O)cnc2n1)N1CC[C@]2(Cc3ccccc3CN2)[C@H](O)C1 [Example 129, [(3R,3′R)-3′-hydroxy-1,4-dihydro-1′H,2H-spiro[isoquinoline-3,4′-piperidin]-1′-yl](6-hydroxyimidazo[1,2-a]pyrimidin-2-yl)methanone]
19700 nM | 21.4 nM | 9600 nM | O=C(c1cn2cc(Br)c(O)cc2n1)N1CC[C@]2(Cc3ccccc3CN2)[C@H](O)C1 [Example 130, (6-bromo-7-hydroxy imidazo[1,2-a]pyridin-2-yl)[(3R,3′R)-3′-hydroxy-1,4-dihydro-1′H,2H-spiro[isoquinoline-3,4′-piperidin]-1′-yl]methanone]
74100 nM | 70.8 nM | ≥ 10000 nM | Cc1cn2cc(C(=O)N3CC[C@]4(Cc5ccccc5CN4)[C@H](O)C3)nc2nc1O [Example 131, 2-{[(3R,3′R)-3′-hydroxy-1,4-dihydro-1′H,2H-spiro[isoquinoline-3,4′-piperidin]-1′-yl]carbonyl}-6-methylimidazo[1,2-a]pyrimidin-7(1H)-one]
123 nM | 0.244 nM | 6.61 nM | COC(C)c1cc(C2CC2)cn2cc(C(=O)N3CC[C@]4(Cc5ccccc5CN4)[C@H](O)C3)nc12 (stereo partly drawn) [Example 132, [6-cyclopropyl-8-(1-methoxyethyl)imidazo[1,2-a]pyridin-2-yl][(3R,3′R)-3′-hydroxy-1,4-dihydro-1′H,2H-spiro[isoquinoline-3,4′-piperidin]-1′-yl]methanone]
16.2 nM | 3.79 nM | 77.4 nM | CC(C#N)c1cnc2nc(C(=O)N3CC[C@]4(Cc5ccccc5CN4)[C@H](O)C3)cn2c1 (stereo partly drawn) [Example 133, 2-(2-{[(3R,3′R)-3′-hydroxy-1,4-dihydro-1′H,2H-spiro[isoquinoline-3,4′-piperidin]-1′-yl]carbonyl}imidazo[1,2-a]pyrimidin-6-yl)propanenitrile]
– | 143 nM | 184 nM | O=C(c1cn2cc(C3CC3)ncc2n1)N1CC[C@]2(Cc3ccccc3CN2)[C@H](O)C1 [Example 134, (6-cyclopropylimidazo[1,2-a]pyrazin-2-yl)[(3R,3′R)-3′-hydroxy-1,4-dihydro-1′H,2H-spiro[isoquinoline-3,4′-piperidin]-1′-yl]methanone]
– | 10.6 nM | 6.86 nM | O=C(c1cn2cc(Br)c(C3CC3)nc2n1)N1CC[C@]2(Cc3ccccc3CN2)[C@H](O)C1 [Example 135, (6-bromo-7-cyclopropylimidazo[1,2-a]pyrimidin-2-yl)[(3R,3′R)-3′-hydroxy-1,4-dihydro-1′H,2H-spiro[isoquinoline-3,4′-piperidin]-1′-yl]methanone]
– | 202 nM | 322 nM | Cc1cn2cc(C(=O)N3CC[C@]4(Cc5ccccc5CN4)[C@H](O)C3)nc2c(Br)n1 [Example 138, (8-bromo-6-methylimidazo[1,2-a]pyrazin-2-yl)[(3R,3′R)-3′-hydroxy-1,4-dihydro-1′H,2H-spiro[isoquinoline-3,4′-piperidin]-1′-yl]methanone]
– | 1390 nM | 2090 nM | Cc1nc2ncc(C(=O)N3CC[C@]4(Cc5ccccc5CN4)[C@H](O)C3)n2cc1Br [Example 140, (6-bromo-7-methylimidazo[1,2-a]pyrimidin-3-yl)[(3R,3′R)-3′-hydroxy-1,4-dihydro-1′H,2H-spiro[isoquinoline-3,4′-piperidin]-1′-yl]methanone]
3720 nM | 101 nM | 4380 nM | Cc1c(Br)cnc2ncc(C(=O)N3CC[C@]4(Cc5ccccc5CN4)[C@H](O)C3)n12 [Example 141, (6-bromo-5-methylimidazo[1,2-a]pyrimidin-3-yl)[(3R,3′R)-3′-hydroxy-1,4-dihydro-1′H,2H-spiro[isoquinoline-3,4′-piperidin]-1′-yl]methanone]
2950 nM | 4.3 nM | 414 nM | O=C(c1ccc2c(O)c(CC(F)(F)F)cnc2c1)N1CC[C@]2(Cc3ccccc3CN2)[C@H](O)C1 [Example 153, ((3R,3′R)-3′-hydroxy-1,4-dihydro-2H-spiro[isoquinoline-3,4′-piperidin]-1′-yl)(4-hydroxy-3-(2,2,2-trifluoroethyl)quinolin-7-yl)methanone]
266 nM | 0.802 nM | 4.42 nM | O=C(c1cn2cc(C(F)(F)F)cc(C3CCOC3)c2n1)N1CC[C@]2(Cc3ccccc3CN2)[C@H](O)C1 (stereo partly drawn) [Example 154, ((3R,3′R)-3′-hydroxy-2,4-dihydro-1H-spiro[isoquinoline-3,4′-piperidin]-1′-yl)(8-(tetrahydrofuran-3-yl)-6-(trifluoromethyl)imidazo[1,2-a]pyridin-2-yl)methanone]
385 nM | 2.56 nM | 50.2 nM | O=C(c1cnc2ncc(C(F)(F)F)cn12)N1CC[C@]2(Cc3ccccc3CN2)[C@H](O)C1 [Example 168, [(3R,3′R)-3′-hydroxy-1,4-dihydro-1′H,2H-spiro[isoquinoline-3,4′-piperidin]-1′-yl][6-(trifluoromethyl)imidazo[1,2-a]pyrimidin-3-yl]methanone]
427 nM | 1.51 nM | 89 nM | O=C(c1cn2cc(C(F)(F)F)cnc2n1)N1CC[C@]2(Cc3ccccc3CN2)[C@H](O)C1 [Example 169, [(3R,3′R)-3′-hydroxy-1,4-dihydro-1′H,2H-spiro[isoquinoline-3,4′-piperidin]-1′-yl][6-(trifluoromethyl)imidazo[1,2-a]pyrimidin-2-yl]methanone]
1780 nM | 2.56 nM | 19 nM | O=C(c1ccc2c(c1)NCCN(CC(F)(F)F)C2=O)N1CC[C@]2(Cc3ccccc3CN2)[C@H](O)C1 [Example 170, 8-{[(3R,3′R)-3′-hydroxy-1,4-dihydro-1′H,2H-spiro[isoquinoline-3,4′-piperidin]-1′-yl]carbonyl}-4-(2,2,2-trifluoroethyl)-1,2,3,4-tetrahydro-5H-1,4-benzodiazepin-5-one]
– | 1910 nM | ≥ 10000 nM | O=C(c1cc2n(n1)CCS(=O)(=O)C2)N1CC[C@]2(Cc3ccccc3CN2)[C@H](O)C1 [Example 177, (5,5-dioxido-6,7-dihydro-4H-pyrazolo[5,1-c][1,4]thiazin-2-yl)((3R,3′R)-3′-hydroxy-1,4-dihydro-2H-spiro[isoqiuinoline-3,4′-piperidin]-1′-yl)methanone]
85100 nM | 129 nM | 3210 nM | Cc1cc(C)n2nc(C(=O)N3CC[C@]4(Cc5ccccc5CN4)[C@H](O)C3)nc2n1 [Example 178, (5,7-dimethyl-[1,2,4]triazolo[1,5-a]pyrimidin-2-yl)((3R,3′R)-3′-hydroxy-1,4-dihydro-2H-spiro[isoquinoline-3,4′-piperidin]-1′-yl)methanone]
69200 nM | 513 nM | 8760 nM | Cc1cc(C(F)F)n2nc(C(=O)N3CC[C@]4(Cc5ccccc5CN4)[C@H](O)C3)nc2n1 [Example 179, (7-(difluoromethyl)-5-methyl-[1,2,4]triazolo[1,5-a]pyrimidin-2-yl)((3R,3′R)-3′-hydroxy-1,4-dihydro-2H-spiro[isoquinoline-3,4′-piperidin]-1′-yl)methanone]
52500 nM | 51.3 nM | 1320 nM | Cc1nn(C)c2ncc(C(=O)N3CC[C@]4(Cc5ccccc5CN4)[C@H](O)C3)c(Cl)c12 [Example 180, (4-chloro-1,3-dimethyl-1H-pyrazolo[3,4-b]pyridin-5-yl)((3R,3′R)-3′-hydroxy-1,4-dihydro-2H-spiro[isoquinoline-3,4′-piperidin]-1′-yl)methanone]
3980 nM | 20.9 nM | 924 nM | Cc1cc2ncc(C(=O)N3CC[C@]4(Cc5ccccc5CN4)[C@H](O)C3)c(C)n2n1 [Example 181, (2,7-dimethylpyrazolo[1,5-a]pyrimidin-6-yl)((3R,3′R)-3′-hydroxy-1,4-dihydro-2H-spiro[isoquinoline-3,4′-piperidin]-1′-yl)methanone]
1350 nM | 4.57 nM | 155 nM | O=C(c1cc2oc3ccccc3c2cc1O)N1CC[C@]2(Cc3ccccc3CN2)[C@H](O)C1 [Example 182, ((3R,3′R)-3′-hydroxy-1,4-dihydro-2H-spiro[isoquinoline-3,4′-piperidin]-1′-yl)(2-hydroxydibenzo[b,d]furan-3-yl)methanone]

Reference: US12441730B2, “PRMT5 inhibitors” (Merck Sharp & Dohme LLC, priority 2019, dated 2025)
